{"source": "patent US20030225001A1", "about": "“Preparation of an auricularia auricula polysaccharide and its use in mammals” (priority 2002, published 2003)", "test_system": "serum lipids (TC, TG, HDL, TC/HDL ratio) in humans", "experiment": "Multicenter double-blind random trial: effect of AP on serum total cholesterol and triglycerides in humans", "assay_type": "in vivo, human", "excerpt": "A multicenter study, based on the Fujian Traditional Chinese Medicine Research Institute protocol, involved 476 patients between November 1994 and August 1996.\nThe total patient population was approximately 61% male, with the AP group being approximately 60% male and the control group approximately 64% male. Patients in each group were […] and averaged approximately 54-55 years of age. 164 patients had total cholesterol (TC) levels of 6.5-8.0 mmol/L, and 275 patients had triglycerides (TG) levels of 1.6-3.0 mmol/L. 131 patients had low high density lipoprotein (HDL) (<1.04 mmole/L for male, HDL<1.17 mmol/L for female). 201 patients had raised TC/HDL ratios (>5).\nPatients with liver, renal and thyroid disease, as well as pregnant women and those who were on medications that could affect serum lipid readings, were excluded. Also excluded were patients who within the last year had had acute myocardial infarction, cerebral vascular diseases, major trauma and/or major surgery, as well as those with severe coronary or renal failure.\nAll medications were taken 2 times daily for 8 weeks. Although medications were administered by capsules, it should be understood that medications could be administered by tablets, liquids and/or pills as well.", "data": [{"smiles": "CC(C)OC(=O)C(C)(C)Oc1ccc(C(=O)c2ccc(Cl)cc2)cc1", "note": "[FF, Fenofibrate]", "values": [{"measurement": "Range of decreases (HDL level)", "setting": "HDL, start vs end of 8 weeks", "value": "0.18 ± 0.15", "unit": "mmol/L"}, {"measurement": "End HDL", "setting": "after 8 weeks, AP 3 x 200 mg capsules or FF 100 mg tablet, 2 times daily", "value": "1.06 ± 0.27", "unit": "mmol/L"}, {"measurement": "Start HDL", "setting": "baseline, patients with low HDL", "value": "0.88 ± 0.27", "unit": "mmol/L"}, {"measurement": "End TC", "setting": "total cholesterol after 8 weeks, AP 3 x 200 mg capsules or FF 100 mg tablet, 2 times daily", "value": "6.46 ± 1.33", "unit": "mmol/L"}, {"measurement": "Start TC", "setting": "total cholesterol, baseline, patients with raised TC", "value": "7.81 ± 1.38", "unit": "mmol/L"}, {"measurement": "End TC (table: Effect of AP on triglyceride (TG) level)", "setting": "triglyceride table, after 8 weeks, AP 3 x 200 mg capsules or FF 100 mg tablet, 2 times daily", "value": "1.96 ± 1.10", "unit": "mmol/L"}, {"measurement": "Start TC (table: Effect of AP on triglyceride (TG) level)", "setting": "triglyceride table, baseline, patients with raised TG", "value": "2.94 ± 1.38", "unit": "mmol/L"}]}]}
